Experimental findings from patent US11278561B2, “Combination treatment for hematological cancers” (Geron Corporation, priority 2016, dated 2022) are described below.

Structures are written as SMILES.

One experiment relates to telomerase. In words: telomerase activity by qPCR TRAP in MOLM-13 lysates. The experiment is classed as cell-based, human. To be noted: 50 μM imetelstat sodium or 20 nM ABT-199. The protocol: Samples from the previous section for protein analysis were collected as cell pellets by centrifugation at 5 minutes for 1500K for lyses and protein extraction. Protein lysates were analyzed by utilizing a modified method combined from two primary sources (Hou, et al. (2001) 43(3) 519-524 and Nature Protocols (2006) 1 (3) 1583-1590). Lysates were generated by adding 80 μL of a 10 mM Tris-EDTA, 1% NP-40, 10% Glycerol, 150 mM NaCl, 1 mM MgCl2, 250 μM Sodium Deoxycholate, 100 μM AEBSF, 5 mM 2-mercaptoethanol buffer and incubating on ice for 30 minutes. Lysates were centrifuged for 15 minutes at max speed and at 4° C. to pellet cellular debris. Protein yield from clarified lysates were quantified using a BCA assay (ThermoFisher catalog 23252) and subjected to a qPCR TRAP-based assay to determine relative telomerase activity (Power SYBR Green PCR Master Mix—ThermoFisher #4367659) using a ViiA7 Real-Time PCR system from ThermoFisher. In this assay, protein lysates are exposed to synthetic oligonucleotides mimicking telomere sequences in the presence of excess dNTPs and SYBR green dye. The greater the activity of telomerase, the greater extension of the synthetic primers, and therefore greater staining of nucleic acid and signal generated by the SYBR dye. This signal is compared to a standard curve of control protein lysate to determine the relative telomerase activity between samples.

Experiment [1] has as its system CD45+ leukocytes from AML patient PBMCs. In words: ex vivo viability of AML patient PBMCs, CD45+ leukocytes. The experiment is classed as cell-based, human. To be noted: 16-hour and 40-hour exposure; imetelstat sodium 25, 50 μM and/or venetoclax 20, 100 nM; mean of four patients. The protocol: AML cell lines (see Example 1) and AML patient peripheral blood mononuclear cell (“PBMC”) samples, which were obtained from AML patient whole blood after Ficoll purification, were treated with imetelstat sodium or venetoclax alone, or in combination, and viable and apoptotic populations of cells were evaluated by flow cytometry. Telomerase activity, hTERT expression and mitochondrial dysfunction were investigated for mechanism of action. […] Apoptosis was measured via flow cytometry staining for Annexin V and propidium iodide. Unstained (i.e. double negative) cells constitute viable cells remaining after treatment.
Specifically, whole blood from AML patients (n=4) was purified using Ficoll-Paque Plus (GE Healthcare catalog #17-1440-03) to purify PBMCs. […]
After 16- and 40-hours of treatment, cells were measured for healthy, early apoptotic and apoptotic populations with an Annexin V (interior cell membrane stain) plus propidium iodide (PI, DNA binding dye) flow cytometry assay kit (BioLegend catalog #640914) as described in the Example 1. […] Means and standard deviations were determined for the four patients for CD45^+ (leukocytes) and CD45^+/CD34^+ (leukemic stem cells) populations.

In the case of `CC1(C)CCC(CN2CCN(c3ccc(C(=O)NS(=O)(=O)c4ccc(NCC5CCOCC5)c([N+](=O)[O-])c4)c(Oc4cnc5[nH]ccc5c4)c3)CC2)=C(c2ccc(Cl)cc2)C1` [ABT-199, 4-[4-[[2-(4-chlorophenyl)-4,4-dimethylcyclohexen-1-yl]methyl]piperazin-1-yl]-N-[3-nitro-4-(oxan-4-ylmethylamino)phenyl]sulfonyl-2-(1H-pyrrolo [2,3-b]pyridin-5-yloxy)benzamide], the “telomerase activity as compared to control” value is reported as “no effect” with telomerase (MOLM-13, 48 hours) and roughly 70% in the experiment with telomerase (MOLM-13, 96 hours). Also, in experiment [1], the “viability of CD45+ leukocytes derived from AML patients” value was “only moderately impacted”.
